Laboratory results reported in BigSolDB 2.1.

O=C(O)c1cc2ccccc2cc1O
solubility (mole fraction)
Conditions	in acetic acid	in acetone	in ethanol	in ethyl acetate	in isobutanol	in isopropanol	in methanol	in methyl acetate	in n-butanol	in n-propanol
293.15 K	0.00556	0.0363	0.0218	0.0222	0.0147	0.0234	0.0131	0.0204	0.0268	0.0234
298.15 K	0.00672	0.0389	0.0258	0.0251	0.0174	0.0267	0.0155	0.0225	0.03	0.0259
303.15 K	0.00786	0.0423	0.0294	0.0278	0.0207	0.0306	0.018	0.025	0.0346	0.0288
308.15 K	0.00913	0.0461	0.0331	0.0309	0.0236	0.035	0.0208	0.0286	0.0382	0.0323
313.15 K	0.0105	0.0506	0.037	0.0338	0.0279	0.0406	0.0239	0.0318	0.0431	0.0372
318.15 K	0.0121	0.0547	0.0415	0.0375	0.0316	0.0446	0.0271	0.0349	0.0466	0.0402
323.15 K	0.014	0.0607	0.0469	0.0417	0.0377	0.0514	0.0313	0.0402	0.0529	0.0453
328.15 K	0.0164	0.0661	0.0537	0.0468	0.0421	0.0565	0.0358	0.0447	0.0579	0.0513
333.15 K	0.0192	–	0.0619	0.0533	0.0501	0.0649	0.0415	–	0.0663	0.0574
